Test results reported in patent US5972946A, “Acetamide derivative, process for preparing the same, and a pharmaceutical composition containing the same” (Dainippon Pharmaceutical Co., Ltd., priority 1995, dated 1999).

molecular target: peripheral (ω3) benzodiazepine (BZ) receptor (Rattus norvegicus, UniProt P16257); assay: BZω3 (peripheral-type) benzodiazepine receptor binding assay
Procedure: Experiment 1: Central (ω1, ω2) and peripheral (ω3) benzodiazepine (BZ) receptor binding assays
BZω1 and BZω2 receptor binding assays were carried out according to the method of Stephens, D. N. et al. [cf.
Receptor membrane fractions for ω1, ω2 and ω3 were prepared from the cerebellum (ω1), spinal cord (ω1) or kidney (ω3) in 7-8 week old male rats of Wistar strain by the procedure described below.
After the cerebellum or spinal cord was homogenized with 20 volumes of ice-cold 50 mM Tris-citrate buffer (pH 7.1), the homogenate was centrifuged for 15 minutes at 40,000 g. The pellet obtained was washed 4 times by the same procedure, frozen and stored for 24 hours at -60° C. The resulting pellet, after being thawed, washed with the buffer and centrifuged, was suspended in the buffer I for the binding assay (50 mM Tris-HCl buffer containing 120 mM NaCl, 5 mM KCl, 2 mM CaCl2 and 1 mM MgCl2 ; pH 7.4) and the suspension thus obtained (containing 1 g wet tissue/40 ml) was used for the BZω1 and BZω2 receptor binding assays. On the other hand, the kidney was homogenized with 20 volumes of the ice-cold buffer II for the binding assay (50 mM Na--K phosphate buffer containing 100 mM NaCl; pH 7.4), filtered through 4 sheets of gauze, and centrifuged for 20 minutes at 40,000 g. The pellet obtained was suspended in the buffer II and the suspension (containing 1 g wet tissue/100 ml) was used for the binding assay as BZω3 receptor membrane source.
Flumazenil (final concentration: 0.3 nM for (ω1 and 1 nM for ω2) and flunitrazepam (final concentration: 10 μM) were used for the BZω1 or BZω2 receptor binding assays as the isotope-labeled and unlabeled ligands, respectively. For the BZω3 receptor binding assay, [^3 H] 4'-chlorodiazepam (7-chloro-1,3-dihydro-1-methyl-5-(4-chlorophenyl)-2H-1,4-benzodiazepin-2-one) (final concentration: 0.5 nM) and diazepam (final concentration: 100 μM) were used as the isotope-labeled and unlabeled ligands, respectively. Incubation was performed for 30 minutes at 37° C. in the BZω1 or BZω2 receptor binding assays, and for 150 minutes at 0° C. in the BZω3 receptor binding assay. The BZω1 or BZω2 receptor binding assays were carried out in the presence of bicuculline (final concentration: 100 μM).
The binding assay was performed by the following procedure. After adding each test compound at certain known concentrations, a [^3 H] ligand and the buffer I or II to each test tube, each assay was started by addition of membrane preparation (total volume of 1 ml). After incubation, the assay was terminated by filtration with suction through a Whatman GF/B glass fiber filter using a cell harvester (Brandel, USA). The filters were rapidly washed 3 times with 5 ml of ice-cold 50 mM Tris-HCl buffer (pH 7.7) for ω1 and ω2, or the buffer II forω3, and transferred to scintillation vials containing 10 ml liquid scintillation cocktail (ACS-II, Amersham, USA). After a few hours, retained radioactivity was counted by a liquid scintillation spectrometer. Specific binding of [^3 H] ligands was calculated as the difference between amounts of radioactivity bound in the presence and absence of excess unlabeled ligands.

Row | SMILES | IC50
1 | CCCCN(CCCC)C(=O)COc1nc(-c2ccc(F)cc2)nc2c1CCCC2 [Example 134] | 3.07 nM
2 | CCCCN(CCCC)C(=O)CNc1nc(-c2ccc(Cl)cc2)nc2c1CCCC2 [Example 107] | 4.23 nM
3 | CCCCN(CCCC)C(=O)CNc1nc(-c2ccc(F)cc2)nc2c1CCCC2 [Example 106] | 4.24 nM
4 | CN(CC(=O)N(C)c1ccc(Cl)cc1)c1nc(-c2ccccc2)nc2c1CCCC2 [Example 111] | 2.05 nM
5 | Cc1nc(-c2ccccc2)nc(N(C)CC(=O)N(C)c2ccc(Cl)cc2)c1C [Example 76] | 1.33 nM
6 | CCCN(CCC)C(=O)C1CCCN1c1nc(-c2ccccc2)nc2c1CCCC2 (centres unmarked) [Example 119, 1-(5,6,7,8-Tetrahydro-2-phenyl-4-quinazolinyl)-N,N-dipropyl-2-pyrrolidinecarboxamide] | 1.45 nM
7 | CCCN(CCC)C(=O)CNc1nc(-c2ccccc2)nc(CC)c1C [Example 85, 2-(6-ethyl-5-methyl-2-phenyl-4-pyrimidinylamino)-N,N-dipropylacetamide] | 0.18 nM
8 | CCCN(CCC)C(=O)COc1nc(-c2ccc(Cl)cc2)nc2c1CCCC2 [Example 131] | 0.89 nM
9 | CCN(C(=O)CNc1nc(-c2ccccc2)nc(C)c1C)c1ccc(Cl)cc1 [Example 51] | 0.32 nM
10 | COc1ccc(N(C)C(=O)CNc2nc(-c3ccccc3)nc(C)c2C)cc1 [Example 41] | 2.53 nM
11 | CCCN(CCC)C(=O)C(CO)Nc1nc(-c2ccccc2)nc2c1CCCC2 (centres unmarked) [Example 118, 3-hydroxy-2-(5,6,7,8-tetrahydro-2-phenyl-4-quinazolinylamino)-N,N-dipropylpropanamide] | 1.07 nM
12 | CCCN(CCC)C(=O)COc1nc(-c2ccc([N+](=O)[O-])cc2)nc(C)c1C [Example 142] | 0.08 nM
13 | CCN(C(=O)CNc1nc(-c2ccc(C(F)(F)F)cc2)nc(C)c1C)c1ccccc1 [Example 49] | 0.23 nM
14 | CCCN(CCC)C(=O)CNc1nc(-c2ccccc2)ncc1CO [Example 127, 2-(5-hydroxymethyl-2-phenyl-4-pyrimidinylamino)-N,N-dipropylacetamide] | 4.35 nM
15 | CCc1c(C)nc(-c2ccccc2)nc1NCC(=O)N(C)c1ccc(Cl)cc1 [Example 84, N-(4-chlorophenyl)-2-(5-ethyl-6-methyl-2-phenyl-4-pyrimidinylamino)-N-methylacetamide] | 2.04 nM
16 | Cc1nc(-c2cccc(Cl)c2)nc(OCC(=O)N(C)c2ccccc2)c1C [Example 145] | 1.6 nM
17 | CCCN(CCC)C(=O)C(CO)Nc1nc(-c2ccccc2)nc(C)c1C (centres unmarked) [Example 69, 3-hydroxy-2-(5,6-dimethyl-2-phenyl-4-pyrimidinylamino)-N,N-dipropylpropanamide] | 2.75 nM
18 | CCCN(CCC)C(=O)COc1nc(-c2cccc(Cl)c2)nc2c1CCCC2 [Example 130] | 1.31 nM
19 | Cc1nc(-c2ccccc2)nc(OCC(=O)N(C)c2ccc(Cl)cc2)c1C [Example 149] | 1.14 nM
20 | CCN(C(=O)COc1nc(-c2ccccc2)nc(C)c1C)c1ccccc1 [Example 151] | 0.58 nM
21 | CN(C(=O)CNc1nc(-c2ccc(Cl)cc2)nc2c1CCCC2)c1ccc(Cl)cc1 [Example 109] | 2.09 nM
22 | CCCN(CCC)C(=O)COc1nc(-c2ccc(Cl)cc2)nc(C)c1C [Example 137] | 0.93 nM

Row | SMILES | IC50
23 | CN(C(=O)CNc1nc(-c2ccccc2)nc2c1CCCC2)c1ccc(Cl)cc1 [Example 108] | 1.21 nM
24 | CCCN(CCC)C(=O)CN(C)c1nc(-c2ccccc2)nc2c1CCCC2 [Example 110] | 1.99 nM
25 | Cc1nc(-c2ccc(C(F)(F)F)cc2)nc(OCC(=O)N(C)c2ccccc2)c1C [Example 147] | 0.52 nM
26 | CCCN(CCC)C(=O)CNc1nc(-c2ccc(Cl)cc2)nc2c1CCCC2 [Example 104] | 3.44 nM
27 | Cc1nc(-c2ccccc2)nc(OCC(=O)N(C)c2ccccc2)c1C [Example 143] | 1.4 nM
28 | Cc1nc(-c2ccc(Cl)cc2)nc(NCC(=O)N2CC(C)OC(C)C2)c1C (centres unmarked) [Example 68, 4-[2-(4-Chlorophenyl)-5,6-dimethyl-4-pyrimidinylamino]acetyl-2,6-dimethylmorpholine] | 2.19 nM
29 | CCCCN(CCCC)C(=O)COc1nc(-c2ccccc2)nc2c1CCCC2 [Example 133] | 2.2 nM
30 | CN(C(=O)CNc1nc(-c2ccccc2)ncc1N)c1ccccc1 [Example 124, 2-(5-amino-2-phenyl-4-pyrimidinylamino)-N-methyl-N-phenylacetamide] | 5.35 nM
31 | CCCN(CCC)C(=O)CNc1nc(-c2ccccc2)nc2c1CCCC2 [Example 102, 2-(5,6,7,8-tetrahydro-2-phenyl-4-quinazolinylamino)-N,N-dipropylacetamide] | 3.31 nM
32 | CCCCN(CCCC)C(=O)COc1nc(-c2ccc(Cl)cc2)nc2c1CCCC2 [Example 135] | 3.17 nM
33 | CCCN(CCC)C(=O)CNc1nc(-c2ccc(F)cc2)nc2c1CCCC2 [Example 103] | 2.9 nM
34 | CCCN(CCC)C(=O)COc1nc(-c2ccc(F)cc2)nc2c1CCCC2 [Example 128, 2-[2-(4-fluorophenyl)-5,6,7,8-tetrahydro-4-quinazolinyloxy]-N,N-dipropylacetamide] | 0.79 nM
35 | CCCCN(CCCC)C(=O)CNc1nc(-c2ccc(Cl)cc2)nc(C)c1C [Example 15] | 3.86 nM
36 | CCCN(CCC)C(=O)CNc1nc(-c2ccccc2)nc(-c2ccccc2)c1C [Example 97] | 2.27 nM
37 | COc1ccc(-c2nc(C)c(C)c(NCC(=O)N(C)c3ccccc3)n2)cc1 [Example 26] | 0.28 nM
38 | Cc1nc(-c2ccc(C(F)(F)F)cc2)nc(NCC(=O)N(C)c2ccccc2)c1C [Example 27] | 0.11 nM
39 | CN(C(=O)C1CCCN1c1nc(-c2ccccc2)nc2c1CCCC2)c1ccc(Cl)cc1 (centres unmarked) [Example 120, N-(4-Chlorophenyl)-1-(5,6,7,8-tetrahydro-2-phenyl-4-quinazolinyl)-N-methyl-2-pyrrolidinecarboxamide 1/4 hydrate] | 1.63 nM
40 | CCN(C(=O)COc1nc(-c2ccc(C(F)(F)F)cc2)nc(C)c1C)c1ccccc1 [Example 155] | 0.76 nM
41 | CCCN(CCC)C(=O)COc1nc(-c2ccc(C(F)(F)F)cc2)nc(C)c1C [Example 141] | 0.11 nM
42 | CCCN(CCC)C(=O)COc1nc(-c2ccc(F)cc2)nc(C)c1C [Example 138] | 0.53 nM
43 | CCCN(CCC)C(=O)C1Cc2ccccc2N1c1nc(-c2ccccc2)nc(C)c1C (centres unmarked) [Example 81, 2,3-dihydro-1-(5,6-dimethyl-2-phenyl-4-pyrimidinyl)-N,N-dipropyl-1H-indole-2-carboxamide] | 6.9 nM
44 | CCCCN(CCCC)C(=O)CNc1nc(-c2ccccc2)nc2c1CCCC2 [Example 105] | 4.18 nM

Now from value to molecule:

Row | IC50 | SMILES
45 | 0.99 nM | Cc1nc(-c2ccccc2)nc(OCC(=O)N2CC(C)CC(C)C2)c1C (centres unmarked) [Example 170, 3,5-dimethyl-1-(5,6-dimethyl-2-phenyl-4-pyrimidinyloxy)acetylpiperidine]
46 | 1.9 nM | CCN(CC)C(=O)COc1nc(-c2ccccc2)nc(C)c1C [Example 175]
47 | 1.15 nM | CCCN(CCC)C(=O)C(C)Oc1nc(-c2ccccc2)nc2c1CCCC2 (centres unmarked) [Example 169, 2-(5,6,7,8-tetrahydro-2-phenyl-4-quinazolinyloxy)-N,N-dipropylpropanamide]
48 | 2 nM | CCCN(CCC)C(=O)COc1nc(-c2ccccc2)nc(-c2ccccc2)c1C [Example 159]
49 | 2 nM | CC1CN(C(=O)COc2nc(-c3ccc(Cl)cc3)nc3c2CCCC3)CC(C)O1 (centres unmarked) [Example 195, 4-[2-(4-Chlorophenyl)-5,6,7,8-tetrahydro-4-quinazolinyloxy] acetyl-2,6-dimethylmorpholine]
50 | 4.57 nM | CCCN(C(=O)COc1nc(-c2ccccc2)nc2c1CCCC2)c1ccccc1 [Example 182]
51 | 9.71 nM | CN(C(=O)COc1nc(-c2ccccc2)nc2c1CCCC2)c1cccc(Cl)c1 [Example 187]
52 | 5.4 nM | CCCN(CCC)C(=O)COc1cc(C)nc(-c2ccccc2)n1 [Example 166, 2-(6-methyl-2-phenyl-4-pyrimidinyloxy)-N,N-dipropylacetamide]
53 | 5.24 nM | CN(Cc1ccccc1)C(=O)COc1nc(-c2ccccc2)nc2c1CCCC2 [Example 188]
54 | 1.05 nM | CCCN(CCC)C(=O)COc1nc(-c2ccccc2)nc2c1CCCC2 [Example 161]
55 | 0.29 nM | CCN(C(=O)COc1nc(-c2ccc([N+](=O)[O-])cc2)nc(C)c1C)c1ccccc1 [Example 164, N-ethyl-2-[5,6-dimethyl-2-(4-nitrophenyl)-4-pyrimidinyloxy]-N-phenylacetamide]
56 | 4.07 nM | CCCN(CCC)C(=O)COc1cc(-c2ccccc2)nc(-c2ccccc2)n1 [Example 158]
57 | 1.61 nM | CN(C(=O)COc1nc(-c2ccc(Cl)cc2)nc2c1CCCC2)c1ccccc1 [Example 181]
58 | 1.19 nM | CN(C(=O)COc1nc(-c2ccccc2)nc2c1CCCC2)c1ccc(Cl)cc1 [Example 162]
59 | 2.64 nM | CN(C(=O)COc1nc(-c2ccc(Cl)cc2)nc2c1CCCC2)c1ccc(Cl)cc1 [Example 163]
60 | 4.3 nM | CCN(CC)C(=O)COc1nc(-c2ccccc2)nc2c1CCCC2 [Example 179]
61 | 4 nM | Cc1nc(-c2ccccc2)nc(OCC(=O)N(CC2CC2)c2ccccc2)c1C [Example 190, N-cyclopropylmethyl-2-(5,6-dimethyl-2-phenyl-4-pyrimidinyloxy)-N-phenylacetamide]
62 | 0.82 nM | CN(C(=O)COc1nc(-c2ccccc2)nc2c1CCCC2)c1ccc(F)cc1 [Example 184]
63 | 4.96 nM | CCc1c(C)nc(-c2ccccc2)nc1OCC(=O)N(C)c1ccc(Cl)cc1 [Example 156]
64 | 4.3 nM | CCCN(CCC)C(=O)COc1cc(C(F)(F)F)nc(-c2ccccc2)n1 [Example 160]
65 | 0.99 nM | CCCN(CCC)C(=O)COc1nc(-c2ccccc2)nc(C)c1Br [Example 168, 2-(5-bromo-6-methyl-2-phenyl-4-pyrimidinyloxy)-N,N-dipropylacetamide]
66 | 1.65 nM | CN(C(=O)COc1nc(-c2ccccc2)nc2c1CCCC2)c1ccccc1 [Example 180]
67 | 8.75 nM | O=C(COc1nc(-c2ccccc2)nc2c1CCCC2)Nc1ccc(F)cc1 [Example 183]
68 | 0.79 nM | CCCN(CCC)C(=O)COc1nc(-c2ccccc2)nc(C)c1Cl [Example 167, 2-(5-chloro-6-methyl-2-phenyl-4-pyrimidinyloxy)-N,N-dipropylacetamide]
